Where two headings read alike, the source gives them in different places.
Legend:
Can2 = target: T1, Can2 (Cryptococcus neoformans, UniProt Q3I4V7); assay type: biochemical
T1 construct: recombinant, obtained in-house
T1 sequence (Q3I4V7 1-239): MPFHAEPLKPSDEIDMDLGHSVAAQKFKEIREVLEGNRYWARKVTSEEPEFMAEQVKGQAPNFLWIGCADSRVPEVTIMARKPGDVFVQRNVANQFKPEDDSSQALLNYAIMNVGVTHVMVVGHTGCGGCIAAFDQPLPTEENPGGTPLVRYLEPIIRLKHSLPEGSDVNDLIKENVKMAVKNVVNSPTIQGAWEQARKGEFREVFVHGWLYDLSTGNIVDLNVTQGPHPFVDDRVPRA

LdcCA = target: T2, LdcCA (Leishmania infantum, UniProt A4HSV2); conditions: read-out: KI (μM)^a / LdcCA; CO2 hydration, TRIS pH 8.3, 20 mM Na2SO4, 1 h preincubation at room temperature
T2 construct: gene LINJ_06_0630
T2 sequence (A4HSV2 1-306): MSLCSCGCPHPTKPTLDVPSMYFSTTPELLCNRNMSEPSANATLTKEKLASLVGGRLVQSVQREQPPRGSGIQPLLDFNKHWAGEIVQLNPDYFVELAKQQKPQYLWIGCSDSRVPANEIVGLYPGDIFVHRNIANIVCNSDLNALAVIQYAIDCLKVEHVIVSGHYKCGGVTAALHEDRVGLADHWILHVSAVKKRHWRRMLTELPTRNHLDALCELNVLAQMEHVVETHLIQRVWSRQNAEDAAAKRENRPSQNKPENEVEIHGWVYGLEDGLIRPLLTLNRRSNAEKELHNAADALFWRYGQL

BpsCAβ = target: T3, BpsCAβ (Burkholderia pseudomallei, UniProt Q63Y17); assay type: biochemical; conditions: read-out: KI (μM)^a / BpsCAβ
T3 construct: gene BPSL0372
T3 sequence (Q63Y17 1-256): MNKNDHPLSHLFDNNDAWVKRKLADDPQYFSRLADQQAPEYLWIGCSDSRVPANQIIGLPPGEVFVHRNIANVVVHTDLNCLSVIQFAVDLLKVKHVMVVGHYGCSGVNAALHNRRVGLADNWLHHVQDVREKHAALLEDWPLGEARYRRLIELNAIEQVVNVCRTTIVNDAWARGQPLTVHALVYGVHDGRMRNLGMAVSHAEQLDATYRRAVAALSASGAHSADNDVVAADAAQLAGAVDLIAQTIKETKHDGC

CgNce [1] = target: T4, CgNce (Nakaseomyces glabratus, UniProt Q6FTL6); conditions: read-out: KI (μM)^a / CgNce; CO2 hydration, TRIS pH 8.3, 20 mM Na2SO4, 1 h preincubation at room temperature
T4 construct: gene NCE103
T4 sequence (Q6FTL6 entry or part of it): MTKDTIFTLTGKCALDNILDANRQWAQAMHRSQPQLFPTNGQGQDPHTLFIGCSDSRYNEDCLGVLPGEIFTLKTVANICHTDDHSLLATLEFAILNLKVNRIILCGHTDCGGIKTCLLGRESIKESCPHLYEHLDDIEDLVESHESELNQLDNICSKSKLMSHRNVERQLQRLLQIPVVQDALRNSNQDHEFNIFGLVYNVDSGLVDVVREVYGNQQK

FtuβCA = target: T5, FtuβCA (Francisella tularensis, UniProt Q5NH77); assay type: biochemical; conditions: read-out: KI (μM)^a / FtuβCA
T5 construct: gene cynT
T5 sequence (Q5NH77 1-228): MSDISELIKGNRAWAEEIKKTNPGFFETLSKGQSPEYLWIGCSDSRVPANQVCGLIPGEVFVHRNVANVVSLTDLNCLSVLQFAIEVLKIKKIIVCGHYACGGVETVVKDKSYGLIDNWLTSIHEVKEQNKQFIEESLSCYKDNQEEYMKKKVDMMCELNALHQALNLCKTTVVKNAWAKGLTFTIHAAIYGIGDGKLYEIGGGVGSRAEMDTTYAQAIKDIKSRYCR

VChβ [2] = target: T6, VChβ (Vibrio cholerae, UniProt Q9KUD6); conditions: read-out: KI (μM)^a / VChβ; CO2 hydration, TRIS pH 8.3, 20 mM Na2SO4, 1 h preincubation at room temperature
T6 construct: gene VC_0586
T6 sequence (Q9KUD6 1-222): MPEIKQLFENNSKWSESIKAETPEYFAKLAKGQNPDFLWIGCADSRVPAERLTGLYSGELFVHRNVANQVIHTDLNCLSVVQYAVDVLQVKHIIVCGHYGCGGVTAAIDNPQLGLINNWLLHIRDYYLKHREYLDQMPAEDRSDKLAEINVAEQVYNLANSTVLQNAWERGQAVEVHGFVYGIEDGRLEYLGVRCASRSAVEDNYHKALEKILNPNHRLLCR

CgNce [3] = target: T4, CgNce; assay: biochemical
VChβ [4] = target: T6, VChβ; assay: biochemical
MgCA = target: T7, MgCA (Malassezia globosa, UniProt A8Q1N3); assay: biochemical
T7 construct: gene MGL_1814
T7 sequence (A8Q1N3 1-241): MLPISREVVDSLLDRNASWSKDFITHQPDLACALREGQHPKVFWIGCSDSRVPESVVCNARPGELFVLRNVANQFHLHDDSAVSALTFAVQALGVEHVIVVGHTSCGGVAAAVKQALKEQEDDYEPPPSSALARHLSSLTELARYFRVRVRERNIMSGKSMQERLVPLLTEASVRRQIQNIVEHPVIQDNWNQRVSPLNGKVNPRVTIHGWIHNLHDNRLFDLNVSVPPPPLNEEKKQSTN

Compound	Ki (Can2; CO2 hydration, TRIS pH 8.3, 20 mM Na2SO4, 1 h preincubation at room temperature, read-out: KI (μM)^a / Can2) [µM]	Ki (LdcCA) [µM]	Ki (BpsCAβ) [µM]	Ki (CgNce [1]) [µM]	Ki (FtuβCA) [µM]	Ki (VChβ [2]) [µM]	Ki (Can2; read-out: KI (μM)^a / Can2) [µM]	Ki (CgNce [3]) [µM]	Ki (VChβ [4]) [µM]	Ki (MgCA) [µM]	Ki (Can2) [µM]
NP(N)(=O)c1ccccc1 [compound 2, phenylphosphonic diamide 2]	0.03	2.1	2.5	0.05	10.3	0.9					
COP(N)(=O)c1ccccc1 (centres unmarked) [compound 3, methyl phosphonamidate 3]		0.8	2.1		8.5		0.02	0.2	0.5		
CCOP(N)(=O)c1ccccc1 (centres unmarked) [compound 4, ethyl derivative 4]		3.5	4.6				0.05	0.8	9.5		
CCCOP(N)(=O)c1ccccc1 (centres unmarked) [compound 5, propyl (5)]		6.8	12.6		35.6		0.9	1.3	15.4	79	
CC(C)OP(N)(=O)c1ccccc1 (centres unmarked) [compound 6, isopropyl (6)]		5.1	5.8		18.4		0.1	0.7	7.3		
CCCCOP(N)(=O)c1ccccc1 (centres unmarked) [compound 7, alkyl phosphonamidate 7]			22.5		42		2.2	5.3	26.8		
NP(=O)(OCCCl)c1ccccc1 (centres unmarked) [compound 9, alkyl phosphonamidate 9]			32.7		15.1			1.8	34.7		0.6
C#CCOP(N)(=O)c1ccccc1 (centres unmarked) [compound 10, propargyl phosphonamidate 10]		19.3	18.9		6.9		5.3	20.2	20.9	97.4	

Reference: paper PMC6830296 (Journal of Enzyme Inhibition and Medicinal Chemistry, 2019)
